System: LPXTGX cleavage enzyme (carbonate extract of D471 membranes)
Test: Cleavage of 125I-labeled LPSTGE synthetic peptide linked to beads (release of radiolabel) by carbonate extract of streptococcal membranes
Format: biochemical, M type 6 streptococcal strain D471 (Streptococcus pyogenes)
Conditions: carbonate extract of the membranes as enzyme source, FIG. 3; for cleavage activity in the presence of inhibitor: 1 mM each
Description: The peptide was radiolabeled with ^125 I using Iodobeads and then the labeled peptide was purified on a Sephadex G10 column and covalently linked by its N-terminal end by EDC (ethyl-3-(3 […])carbodiimide HCl) to an extended arm on a commercially available bead (3M Emphase Biospheres AB1 from Pierce, Rockford, Ill.), and the excess radiolabel removed by washing the beads with 1 M NaCl buffer.
M type 6 streptococcal strain D471 was treated with 0.1 M sodium carbonate (pH 11.5) and incubated for 30 minutes at 0° C. to extract the streptococcal membranes.
The resulting extract was mixed with the labeled beads of Example 1 (50 μl sample, 50 μl 50 mM Tris HCl (pH 8.0) with 10 mM DTT).
The carbonate extract was chromatographed on a 20 HQ perfusion chromatography column, using a Biocad Sprint instrument (Perceptive Biosystem), employing a NaCl gradient from 0 mM to 500 mM (24.9 ml) followed by a 500 mM to 1000 mM (33.2 ml) gradient. To measure the enzyme activity found in the fractions, a 50 μl sample from each fraction was mixed in a reaction buffer in a final volume of 100 μl containing 5 mM DTT and 5 μl of the bead-substrate as described in Example 1. Control samples containing only buffer and the substrate were also mixed and incubated at 37° C. for 4 hours under constant slow rotation. The released radioactivity was then measured in 25 μl of the supernatant obtained after centrifugation. The specific activity was measured after subtracting the control values from the test samples.
FIG. 3 illustrates the enzymatic activity of the carbonate extract of the membranes (as the enzyme source) in the presence of various inhibitors and activators.

Structure (SMILES) | cleavage activity in the presence of inhibitor | other results
OC(CS)C(O)CS (stereo not shown) [DTT] | – | enzymatic (cleavage) activity in the presence of activator (5 mM DTT): enhanced
O=C(O)c1cc[c]([Hg][OH])cc1 [PHMB, parahydroxymercuribenzoic acid] | inhibited cleavage activity | –
O=S(=O)(O)c1cc[c]([Hg][OH])cc1 [PHMPS, parahydroxymercuriphenylsulfonic acid] | inhibited cleavage activity | –
[Ca+2] [calcium] | – | enzymatic (cleavage) activity in the presence of divalent cations (divalent cations such as calcium): enhanced

— patent publication US5968763A, “Method for screening inhibitors of the enzyme which cleaves the anchor of surface proteins from gram positive bacteria” (The Rockefeller University, priority 1997, dated 1999)
